In publication PMC9403976, “Elucidating the path to Plasmodium prolyl-tRNA synthetase inhibitors that overcome halofuginone resistance” (Nature Communications, 2022):
Values joined by “and” are separate entries in the source; they are usually repeats but may differ in a detail not shown here. Equal entries are not always repeated. Where two headings read alike, the source gives them in different places.

Experiments:
P. falciparum Dd2-2D4 = experiment: P. falciparum asexual blood stage (ABS) growth assay, SYBR Green, 72 h, wild-type parasites; assay type: cell-based, Plasmodium falciparum
[1] = test system: P. falciparum Dd2-2D4 NCP26 selections S1-3; experiment: ABS growth assay on bulk populations and clones from NCP26 resistance selections S1-3; assay type: cell-based, Plasmodium falciparum; conditions: for Fold-change Resistance: independent experiments; for EC50: Plasmodium falciparum
HsProRS [2] = target: T1, HsProRS (Homo sapiens, UniProt P07814); experiment: TR-FRET ligand displacement assay with tracer MAT379 (CoraFluor-1-Halo and anti-His6 antibody formats); assay type: binding; design: made in house; host or cells: E. coli SoluBL-21; conditions: for normalized TR-FRET signal (Fig 2k): 15 pM HT-HsProRS; for normalized TR-FRET signal (dose-response replicates): SI Fig 15, titrating, listed as ProSA (25)
HsProRS [3] = target: T1, HsProRS; conditions: ref Heacock et al.; cited from earlier work
HT-PfcProRS [4] = target: T2, HT-PfcProRS (Plasmodium falciparum, UniProt Q8I5R7)
T2 sequence (Q8I5R7 249-746): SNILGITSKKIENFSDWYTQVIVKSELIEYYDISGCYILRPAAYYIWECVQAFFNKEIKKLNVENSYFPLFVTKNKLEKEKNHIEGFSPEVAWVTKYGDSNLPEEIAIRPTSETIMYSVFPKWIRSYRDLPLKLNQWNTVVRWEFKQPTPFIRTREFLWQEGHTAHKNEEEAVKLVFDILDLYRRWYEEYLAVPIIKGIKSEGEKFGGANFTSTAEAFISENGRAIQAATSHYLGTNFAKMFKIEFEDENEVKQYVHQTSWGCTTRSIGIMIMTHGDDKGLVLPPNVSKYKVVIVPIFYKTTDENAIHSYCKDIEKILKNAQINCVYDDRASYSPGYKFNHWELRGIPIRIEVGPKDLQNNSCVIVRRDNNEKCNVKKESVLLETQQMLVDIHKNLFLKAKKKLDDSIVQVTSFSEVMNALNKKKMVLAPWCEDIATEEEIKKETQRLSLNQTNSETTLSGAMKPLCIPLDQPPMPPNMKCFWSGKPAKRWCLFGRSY
Procedure: (§1) A Multidrop Combi Reagent Dispenser (Thermo Fisher Scientific) was used to dispense 20 μL of 2× protein solution into each well. […] Plates were mixed on an Ika MTS 2/4 Digital Microtiter Shaker at 750 rpm for 2 min, centrifuged at 1000 × g at 25 °C for 1 min, and allowed to equilibrate for 2 h at room temperature before TR-FRET measurements were taken.
(§2) PRISM (V. 8.4.3–9.1.0, GraphPad) was used to perform non-linear regression analysis (log(inhibitor) vs. response–Variable slope (four parameters)), plot dose-response curves, and calculate IC50 values. The Cheng–Prusoff equation was used to convert IC50 to KD values (Eq. (4)):4 KD=IC50/1+[MAT379]/KD,MAT379

HT-PfcProRS [5] = target: T2, HT-PfcProRS; experiment: biochemical
Procedure: as §1, §2

HT-HsProRS [6] = target: T3, HT-HsProRS (Homo sapiens, UniProt P07814); experiment: biochemical
T3 sequence (P07814 996-1512): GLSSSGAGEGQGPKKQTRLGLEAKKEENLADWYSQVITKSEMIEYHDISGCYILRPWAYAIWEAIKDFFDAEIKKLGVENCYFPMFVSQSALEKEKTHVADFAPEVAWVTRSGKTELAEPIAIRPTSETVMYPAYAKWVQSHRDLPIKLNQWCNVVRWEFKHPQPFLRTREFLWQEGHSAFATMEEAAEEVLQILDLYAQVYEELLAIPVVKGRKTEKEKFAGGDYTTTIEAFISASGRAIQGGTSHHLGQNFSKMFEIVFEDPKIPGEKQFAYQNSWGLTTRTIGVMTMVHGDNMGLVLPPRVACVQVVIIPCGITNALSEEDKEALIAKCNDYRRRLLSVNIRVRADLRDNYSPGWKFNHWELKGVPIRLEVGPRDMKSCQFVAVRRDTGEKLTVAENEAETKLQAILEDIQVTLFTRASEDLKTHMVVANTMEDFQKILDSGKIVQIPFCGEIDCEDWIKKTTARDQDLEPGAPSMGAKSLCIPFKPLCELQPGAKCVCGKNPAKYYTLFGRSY
Procedure: as §1, §2

HT-HsProRS [7] = target: T3, HT-HsProRS; conditions: replicates 1-4
Procedure: as §1, §2

## C[C@H]1[C@@H](O)O[C@@H]2O[C@@]3(C)CC[C@H]4[C@H](C)CC[C@@H]1[C@@]24OO3 [Dihydroartemesinin (DHA)]
P. falciparum Dd2-2D4; Dd2-2D4, independent experiments
  Fold-change Resistance: 0.78 and 1.22 and 1
[1]; S1 - Clone A8
  Fold-change Resistance: 0.68 and 0.97
[1]; S2 - Clone B9
  Fold-change Resistance: 2.04
[1]; S3 - Clone B3
  Fold-change Resistance: 0.71 and 0.6

## Nc1ncnc2c1ncn2[C@@H]1O[C@H](COS(=O)(=O)NC(=O)[C@@H]2CCCN2)[C@@H](O)[C@H]1O [ProSA, reference compound]
HsProRS [2]; Log[inhibitor] (M) -10.319
  normalized TR-FRET signal (Fig 2k): 9.27E-01 and 5.96E-01 and 5.68E-01 and 6.24E-01 and 7.95E-01 and 4.77E-01
HsProRS [2]; Log[inhibitor] (M) -10.921
  normalized TR-FRET signal (Fig 2k): 1.19E+00 and 1.45E+00 and 8.99E-01 and 1.44E+00
HsProRS [2]; Log[inhibitor] (M) -11.098
  normalized TR-FRET signal (Fig 2k): 1.29E+00 and 1.17E+00 and 7.99E-01 and 9.06E-01
HsProRS [2]; Log[inhibitor] (M) -8.208
  normalized TR-FRET signal (Fig 2i): 2.86E-01 and 2.69E-01 and 2.23E-01
  normalized TR-FRET signal (Fig 2j): 2.20E-01 and 2.14E-01 and 2.31E-01
  normalized TR-FRET signal (dose-response replicates): 2.09E-01 and 4.52E-01 and 3.79E-01
HsProRS [2]; Log[inhibitor] (M) -8.509
  normalized TR-FRET signal (Fig 2i): 5.48E-01 and 5.47E-01 and 6.11E-01
  normalized TR-FRET signal (Fig 2j): 6.99E-01 and 6.28E-01 and 5.28E-01
  normalized TR-FRET signal (dose-response replicates): 6.59E-01 and 7.25E-01 and 6.81E-01
HsProRS [2]; Log[inhibitor] (M) -8.796
  normalized TR-FRET signal (Fig 2i): 8.53E-01 and 8.04E-01 and 8.09E-01
  normalized TR-FRET signal (Fig 2j): 7.16E-01 and 7.19E-01 and 8.75E-01
  normalized TR-FRET signal (dose-response replicates): 8.90E-01 and 6.94E-01 and 8.02E-01
HsProRS [2]; Log[inhibitor] (M) -9.108
  normalized TR-FRET signal (Fig 2i): 9.05E-01 and 8.48E-01 and 8.77E-01
  normalized TR-FRET signal (Fig 2j): 8.43E-01 and 8.74E-01 and 8.91E-01
  normalized TR-FRET signal (dose-response replicates): 8.78E-01 and 8.82E-01
HsProRS [2]; Log[inhibitor] (M) -9.409
  normalized TR-FRET signal (Fig 2i): 8.95E-01
HsProRS [2]; Log[inhibitor] (M) -10.602
  normalized TR-FRET signal (Fig 2j): 8.90E-01
  normalized TR-FRET signal (dose-response replicates): 1.29E+00
HsProRS [2]; Log[inhibitor] (M) -7.601
  normalized TR-FRET signal (dose-response replicates): -6.47E-02 and -3.87E-03 and 4.40E-03
HsProRS [2]; Log[inhibitor] (M) -7.904
  normalized TR-FRET signal (dose-response replicates): 4.29E-02 and -1.08E-01 and 6.52E-02
HsProRS [2]; Log[inhibitor] (M) -10.301
  normalized TR-FRET signal (dose-response replicates): 9.09E-01
HsProRS [2]; Log[inhibitor] (M) -11
  normalized TR-FRET signal (dose-response replicates): 9.02E-01
P. falciparum Dd2-2D4; Plasmodium falciparum, DD2, SI Fig 16b, values on -log scale, read-out: ABS - Dd2-2D4 (converted)
  EC50: 151 nM
[1]; DD2, cell line S1 - Clone A8, read-out: EC50 [nM] mean
  EC50: 258 nM
[1]; DD2, cell line S2 - Clone A3, read-out: EC50 [nM] mean
  EC50: 209 nM
[1]; DD2, cell line S2 - Clone B9, read-out: EC50 [nM] mean
  EC50: 267 nM
[1]; DD2, cell line S2 - Clone C5, read-out: EC50 [nM] mean
  EC50: 243 nM
[1]; DD2, cell line S3 - Clone B3, read-out: EC50 [nM] mean
  EC50: 593 nM
[1]; DD2, cell line S3 - Clone B7, read-out: EC50 [nM] mean
  EC50: 909 nM
[1]; DD2, read-out: EC50 [nM] mean, cell line S3 - Clone B2
  EC50: 838 nM

## O=C(O)[C@@H]1CCCN1 [proline]
HsProRS [3]
  Km: 180 µM
HT-PfcProRS [4]
  fold lower affinity for PfcProRS than MAT379: ~ 4,500 fold
HT-PfcProRS [5]
  Kd: 457000 nM
HT-HsProRS [6]; HsProRS (KD [nM]) mean, substrates, substrate KD, (-)
  Kd: 30600 nM
HT-HsProRS [6]; KD of substrate, […] HT-HsProRS, 1000 nM MAT379
  Kd: 67100 nM
HT-HsProRS [7]; Log[Substrate] (M) -1.000
  Proline - […] HT-HsProRS - 1000nM MAT379: 5.08E-02 and 1.93E-02 and 4.05E-02 and 1.78E-02
HT-HsProRS [7]; Log[Substrate] (M) -1.301
  Proline - […] HT-HsProRS - 1000nM MAT379: 6.44E-02 and 4.43E-02 and 5.23E-02 and 4.24E-02
HT-HsProRS [7]; Log[Substrate] (M) -1.602
  Proline - […] HT-HsProRS - 1000nM MAT379: 7.04E-02 and 4.04E-02 and 8.19E-02 and 3.22E-02
HT-HsProRS [7]; Log[Substrate] (M) -1.903
  Proline - […] HT-HsProRS - 1000nM MAT379: 1.06E-01 and 8.64E-02 and 1.07E-01 and 6.69E-02
HT-HsProRS [7]; Log[Substrate] (M) -2.204
  Proline - […] HT-HsProRS - 1000nM MAT379: 7.48E-02 and 1.05E-01 and 9.62E-02 and 1.28E-01
HT-HsProRS [7]; Log[Substrate] (M) -2.505
  Proline - […] HT-HsProRS - 1000nM MAT379: 7.61E-02 and 5.21E-02 and 2.93E-02 and 5.48E-02
HT-HsProRS [7]; Log[Substrate] (M) -2.806
  Proline - […] HT-HsProRS - 1000nM MAT379: 2.57E-02 and 8.53E-02 and 3.59E-02 and 4.74E-02
HT-HsProRS [7]; Log[Substrate] (M) -3.107
  Proline - […] HT-HsProRS - 1000nM MAT379: 9.60E-02 and 9.41E-02 and 9.82E-02 and 9.09E-02
HT-HsProRS [7]; Log[Substrate] (M) -3.408
  Proline - […] HT-HsProRS - 1000nM MAT379: 8.87E-02 and 1.50E-01 and 1.08E-01 and 8.19E-02
HT-HsProRS [7]; Log[Substrate] (M) -3.709
  Proline - […] HT-HsProRS - 1000nM MAT379: 1.42E-01 and 1.36E-01 and 1.15E-01 and 1.26E-01
HT-HsProRS [7]; Log[Substrate] (M) -4.010
  Proline - […] HT-HsProRS - 1000nM MAT379: 2.43E-01 and 1.82E-01 and 1.50E-01 and 1.67E-01
HT-HsProRS [7]; Log[Substrate] (M) -4.311
  Proline - […] HT-HsProRS - 1000nM MAT379: 2.57E-01 and 2.23E-01 and 2.59E-01 and 1.99E-01
HT-HsProRS [7]; Log[Substrate] (M) -4.612
  Proline - […] HT-HsProRS - 1000nM MAT379: 2.84E-01 and 3.36E-01 and 2.90E-01 and 3.09E-01
HT-HsProRS [7]; Log[Substrate] (M) -4.913
  Proline - […] HT-HsProRS - 1000nM MAT379: 3.43E-01 and 3.30E-01 and 3.37E-01 and 3.11E-01
HT-HsProRS [7]; Log[Substrate] (M) -5.214
  Proline - […] HT-HsProRS - 1000nM MAT379: 3.51E-01 and 3.56E-01 and 3.15E-01 and 3.55E-01
HT-HsProRS [7]; Log[Substrate] (M) -5.515
  Proline - […] HT-HsProRS - 1000nM MAT379: 4.26E-01 and 4.08E-01 and 4.22E-01 and 4.16E-01
HT-HsProRS [7]; Log[Substrate] (M) -5.816
  Proline - […] HT-HsProRS - 1000nM MAT379: 4.12E-01 and 3.85E-01 and 3.49E-01 and 3.26E-01
HT-HsProRS [7]; Log[Substrate] (M) -6.118
  Proline - […] HT-HsProRS - 1000nM MAT379: 4.73E-01 and 4.43E-01 and 3.95E-01 and 3.89E-01
